In patent US8741911B2, “Raf inhibitor compounds” (Eli Lilly and Company, priority 2012, dated 2014):
Read-outs that look alike come from different tables or passages of the source.

How the values were obtained:
A375 V600E xenograft = experiment: A375 xenograft tumor model, efficacy; format: in vivo, rat; settings: nude rats, oral twice a day 5, 10, 15, and 20 mg/kg for 21 days
Protocol: Briefly, 10×10^6 cells (A375) or 5×10^6 cells (HCT-116) in a 1:1 medium and matrigel mix (0.2 mL total volume) are implanted by subcutaneous injection in the hind leg of nude female rats (NIH model No. NIHRNU-M from Taconic). A total of 8 rats in each group are used for the efficacy study, and a total of 3-4 rats in each group are used for a pharmacodynamic study. The Eli Lilly and Company Animal Care and Use Committee approved all the experimental protocols. […] Tumor growth and body weight are monitored over time to evaluate activity and signs of toxicity. Bidimensional measurements of tumors are performed twice a week and tumor volumes are calculated based on mid-axis length and mid-axis width. Tumor volume data are transformed to a log scale to equalize variance across time and treatment groups. The log volume data are analyzed with a two-way repeated measures analysis of variance by time and treatment using the MIXED® procedures in SAS® software (version 8.2). The correlation model for the repeated measures is spatial power. Treated groups are compared to the control group at each time point. The MIXED® procedure is also used separately for each treatment group to calculate adjusted means and standard errors at each time point. […]

NCI-H2081 = experiment: CellTiter-Glo proliferation and viability assay; format: cell-based; settings: Homo sapiens
LOVO = experiment: CellTiter-Glo proliferation and viability assay; format: cell-based; settings: Homo sapiens
BxPC-3 = experiment: CellTiter-Glo proliferation and viability assay; format: cell-based; settings: Homo sapiens
Sk-MeI-2 cells = experiment: CellTiter-Blue SK-MeI-2 cell proliferation assay; format: cell-based; settings: Homo sapiens; SK-Mel-2, CellTiter-Blue; read-out: Cell Proliferation Inhibition IC50
Protocol: (§1) Sk-MeI-2 cells (catalog #HTB-68) are obtained from the American Type Culture Collection (ATCC, Manassas, Va.). Briefly, cells are grown in MEM supplemented with 10% characterized fetal bovine serum (Invitrogen, Carlsbad, Calif.), 1 mM sodium pyruvate, 0.1 mM non-essential amino acids, and 1% Penicillin/Streptomycin/L-Glutamine at 37 degrees Celsius, 5% CO2, and 95% humidity. Cells are allowed to expand until reaching 70-95% confluency at which point they are subcultured or harvested for assay use. A serial dilution of test compound is dispensed into a 384-well black clear bottom plate in triplicate. One thousand two-hundred fifty cells are added per well in 50 μL complete growth medium in the 384-well plate. Plates are incubated for 67 hours at 37 degrees Celsius, 5% CO2, and 95% humidity. At the end of the incubation period, 10 μL of a 440 μM solution of resazurin (Sigma, St. Louis, Mo.) in PBS is added to each well of the plate and plates are incubated for an additional 5 hours at 37 degrees Celsius, 5% CO2, and 95% humidity. Plates are read on a Synergy2 reader (Biotek, Winooski, Vt.) using an excitation of 540 nm and an emission of 600 nm. Data is analyzed using Prism software (Graphpad, San Diego, Calif.) to calculate IC50 values.
(§2) The A375, HT-29, and Colo-205 cells (ATCC) harbor a V600E mutation.

HCC70 = experiment: CellTiter-Glo proliferation and viability assay; format: cell-based; settings: Homo sapiens
SK-Mel-5 = experiment: CellTiter-Glo proliferation and viability assay; format: cell-based; settings: Homo sapiens
EB2 = experiment: CellTiter-Glo proliferation and viability assay; format: cell-based; settings: Homo sapiens
MKN45 = experiment: CellTiter-Glo proliferation and viability assay; format: cell-based; settings: Homo sapiens
HepG2 = experiment: CellTiter-Glo proliferation and viability assay; format: cell-based; settings: Homo sapiens
HCT-116 cells = experiment: CellTiter-Blue HCT-116 cell proliferation assay; format: cell-based; settings: Homo sapiens; HCT-116, CellTiter-Blue; read-out: Cell Proliferation Inhibition IC50
Protocol: as §1, with “HCT-116” for “Sk-MeI-2”, “#CCL-247)” for “#HTB-68)”, “McCoy's 5A” for “MEM”, “Calif.),” for “Calif.), 1 mM sodium pyruvate, 0.1 mM non-essential amino acids,”, “75-90%” for “70-95%”, “Six hundred twenty-five” for “One thousand two-hundred fifty”
as §2

NCI-H2170 = experiment: CellTiter-Glo proliferation and viability assay; format: cell-based; settings: Homo sapiens
NCI-H1993 = experiment: CellTiter-Glo proliferation and viability assay; format: cell-based; settings: Homo sapiens
GA-10-Clone-4 = experiment: CellTiter-Glo proliferation and viability assay; format: cell-based; settings: Homo sapiens
NCI-H2052 = experiment: CellTiter-Glo proliferation and viability assay; format: cell-based; settings: Homo sapiens
SNU-449 = experiment: CellTiter-Glo proliferation and viability assay; format: cell-based; settings: Homo sapiens
MV-4-11 = experiment: CellTiter-Glo proliferation and viability assay; format: cell-based; settings: Homo sapiens
MIA-PaCa-2 = experiment: CellTiter-Glo proliferation and viability assay; format: cell-based; settings: Homo sapiens, read-out: Abs IC50
NCI-H2228 = experiment: CellTiter-Glo proliferation and viability assay; format: cell-based; settings: Homo sapiens

- IC50 (NCI-H2081; read-out: Abs IC50): > 20 nM
- IC50 (NCI-H2081; read-out: Rel IC50): > 20 nM
- IC50 (LOVO; read-out: Abs IC50): 0.19 nM
- IC50 (LOVO; read-out: Rel IC50): 0.12 nM
- IC50 (BxPC-3; read-out: Abs IC50): 0.39 nM
- IC50 (BxPC-3; read-out: Rel IC50): 0.23 nM
- IC50 (Sk-MeI-2 cells): 158 nM
- IC50 (SK-Mel-5; read-out: Abs IC50): 0.13 nM
- IC50 (SK-Mel-5; read-out: Rel IC50): 0.06 nM
- IC50 (MKN45; MKN-45, read-out: Abs IC50): 5.72 nM
- IC50 (MKN45; MKN-45, read-out: Rel IC50): 0.87 nM
- IC50 (HepG2; read-out: Abs IC50): 0.06 nM
- IC50 (HepG2; read-out: Rel IC50): 0.03 nM
- IC50 (HCT-116 cells): 224 nM
- IC50 (NCI-H2170; read-out: Abs IC50): 15.1 nM
- IC50 (NCI-H2170; read-out: Rel IC50): 19.9 nM
- IC50 (NCI-H1993; read-out: Abs IC50): 0.17 nM
- IC50 (NCI-H1993; read-out: Rel IC50): 0.09 nM
- IC50 (NCI-H2052; read-out: Abs IC50): 1.27 nM
- IC50 (NCI-H2052; read-out: Rel IC50): 0.33 nM
- IC50 (SNU-449; read-out: Abs IC50): 1.87 nM
- IC50 (SNU-449; read-out: Rel IC50): 2.01 nM
- IC50 (MV-4-11; MV4-11, read-out: Abs IC50): 0.98 nM
- IC50 (MV-4-11; MV4-11, read-out: Rel IC50): 1.87 nM
- IC50 (MIA-PaCa-2): 1.09 nM
- IC50 (NCI-H2228; read-out: Abs IC50): > 20 nM
- IC50 (NCI-H2228; read-out: Rel IC50): 1.18 nM
SMILES: CNc1ncc2cc(-c3cc(NC(=O)NCCC(C)(C)C)c(F)cc3C)c(C)nc2n1 [Example 1, 1-(3,3-Dimethylbutyl)-3-(2-fluoro-4-methyl-5-(7-methyl-2-(methylamino)pyrido[2,3-d]pyrimidin-6-yl)phenyl)urea]
- animal body weight (A375 V600E xenograft): no animal body weight loss
- tumor growth (A375 V600E xenograft; all dose groups): tumor growth inhibition and tumor growth regression
- IC50 (HCC70; read-out: Abs IC50): > 20 nM
- IC50 (HCC70; read-out: Rel IC50): > 20 nM
- IC50 (EB2; read-out: Abs IC50): > 20 nM
- IC50 (EB2; read-out: Rel IC50): 0.5 nM
- IC50 (GA-10-Clone-4; read-out: Abs IC50): 0.2 nM
- IC50 (GA-10-Clone-4; read-out: Rel IC50): 0.25 nM
